In publication PMC10746708, “A small molecule iCDM-34 identified by in silico screening suppresses HBV DNA through activation of aryl hydrocarbon receptor” (Cell Death Discovery, 2023):

Tested on: HBV genotype C
Experiment: Anti-HBV activity in human hepatocyte-chimeric mice (liver HBV DNA)
Format: in vivo, human hepatocyte-chimeric mice (PXB-mice)
Details: 21 days
Procedure: PXB-mice (human liver chimeric cDNA-uPA^wild/+/SCID male mice) were generated by PhoenixBio. HBV genotype C was then inoculated into the mice via i.v.. After attaining 1.2 × 10^8–3.5 × 10^8 copies/mL of the serum HBV DNA levels, vehicle (10% 2-hydroxypropyl-beta-cyclodextrin and 10% polyethylene glycol 300) or 1 mg/kg iCDM-34 was i.v. injected with or without administration of 0.03 mg/kg ETV orally once a day for 21 days (n = 4). DNA was purified from the liver and its concentration was measured using NanoDrop Spectrophotometer (Thermo Fisher Scientific), followed by measurement of HBV DNA levels by qPCR according to a previously established method. The experimental procedures using the PXB-mice was approved by the Animal Ethics Committee of PhoenixBio.

## O=C(Nc1ccc(Br)cc1)c1ccn(Cn2cc([N+](=O)[O-])cn2)n1 [iCDM-34]
1 mg/kg i.v. once a day, alone
  HBV DNA in the liver, single agent: did not reduce
1 mg/kg i.v. plus ETV 0.03 mg/kg p.o. once a day
  HBV DNA in the liver, combination with ETV compared with ETV alone: drastically suppressed
